# Results taken from ChEMBL document CHEMBL1201862, “PubChem BioAssay data set” (2004).
#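 48-hour exposure; five concentrations; linearly interpolated endpoints. GI50 = concentration required for 50% inhibition of growth.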 The source made the active and inactive calls. No stated cut-off is given here; in the data, active = GI50 up to about 1.1 µM and inactive = higher.
# Key:
# Assay in all cases: DTP human tumour cell line panel, 48 h
# UACC-257 = test system: UACC-257
# OVCAR-8 = test system: OVCAR-8
# UO-31 = test system: UO-31
# A549 = test system: A549
# Malme-3M = test system: Malme-3M
# NCI-H226 = test system: NCI-H226
# NCI-H460 = test system: NCI-H460
# HCT-15 = test system: HCT-15
# U-251 = test system: U-251
# BT-549 = test system: BT-549
# OVCAR-5 = test system: OVCAR-5
# PC-3 = test system: PC-3
# LOX IMVI = test system: LOX IMVI
# HT-29 = test system: HT-29
# SK-MEL-28 = test system: SK-MEL-28
# Hs-578T = test system: Hs-578T
# DU-145 = test system: DU-145
# HL-60 = test system: HL-60
# A498 = test system: A498
# SF-539 = test system: SF-539
Compound,GI50 (UACC-257),GI50 (OVCAR-8),GI50 (UO-31),GI50 (A549),GI50 (Malme-3M),GI50 (NCI-H226),GI50 (NCI-H460),GI50 (HCT-15) [µM],GI50 (U-251),GI50 (BT-549),GI50 (OVCAR-5),GI50 (PC-3),GI50 (LOX IMVI),GI50 (HT-29),GI50 (SK-MEL-28),GI50 (Hs-578T),GI50 (DU-145),GI50 (HL-60),GI50 (A498),GI50 (SF-539)
O=c1c(-c2ccccc2)c(SCCO)n(-c2ccccc2)c(=S)n1-c1ccccc1,> 100 µM (inactive),> 100 µM (inactive),> 100 µM (inactive),> 100 µM (inactive),> 100 µM (inactive),> 100 µM (inactive),> 100 µM (inactive),> 100,> 100 µM (inactive),> 100 µM (inactive),> 100 µM (inactive),> 100 µM (inactive),> 100 µM (inactive),> 100 µM (inactive),> 100 µM (inactive),99.5 µM (inactive),> 100 µM (inactive),> 100 µM (inactive),,
S=c1oc(CCCCCCCCc2nn(CNc3ccc(Cl)cc3)c(=S)o2)nn1CNc1ccc(Cl)cc1,40 µM (inactive),,97.3 µM (inactive),> 100 µM (inactive),> 100 µM (inactive),> 100 µM (inactive),> 100 µM (inactive),> 100,> 100 µM (inactive),> 100 µM (inactive),60.5 µM (inactive),29.3 µM (inactive),,> 100 µM (inactive),20.3 µM (inactive),,> 100 µM (inactive),,> 100 µM (inactive),
COC(=O)c1sc2ncc3c(c2c1N)CC(C)CC3 (stereo not drawn),> 100 µM (inactive),,> 100 µM (inactive),> 100 µM (inactive),> 100 µM (inactive),> 100 µM (inactive),> 100 µM (inactive),> 100,> 100 µM (inactive),> 100 µM (inactive),> 100 µM (inactive),> 100 µM (inactive),71.3 µM (inactive),67 µM (inactive),> 100 µM (inactive),,> 100 µM (inactive),,> 100 µM (inactive),> 100 µM (inactive)
Cc1ccc([N+](=O)[O-])c2c(NCC(O)CO)ccnc12 (stereo not drawn),36.4 µM (inactive),47 µM (inactive),74.3 µM (inactive),25.4 µM (inactive),16.4 µM (inactive),73.1 µM (inactive),20 µM (inactive),28.8,93.8 µM (inactive),47 µM (inactive),> 100 µM (inactive),70.3 µM (inactive),37.6 µM (inactive),30.7 µM (inactive),> 100 µM (inactive),7.71 µM (inactive),51.4 µM (inactive),32.7 µM (inactive),,19.3 µM (inactive)
Oc1ccc(Cl)cc1/N=N\c1c(O)ccc2ccccc12,> 100 µM (inactive),> 100 µM (inactive),> 100 µM (inactive),> 100 µM (inactive),22.2 µM (inactive),> 100 µM (inactive),,> 100,> 100 µM (inactive),> 100 µM (inactive),> 100 µM (inactive),> 100 µM (inactive),60.7 µM (inactive),> 100 µM (inactive),> 100 µM (inactive),> 100 µM (inactive),,78.9 µM (inactive),,
COC(=O)C1(C(=O)OC)N=C(C)OC1/C=C/c1ccccc1 (stereo not drawn),> 100 µM (inactive),> 100 µM (inactive),> 100 µM (inactive),> 100 µM (inactive),,> 100 µM (inactive),> 100 µM (inactive),> 100,> 100 µM (inactive),> 100 µM (inactive),> 100 µM (inactive),> 100 µM (inactive),> 100 µM (inactive),,> 100 µM (inactive),,> 100 µM (inactive),> 100 µM (inactive),> 100 µM (inactive),
O=S(=O)(O)c1ccc(/N=N/c2ccc(/N=N/c3c(O)ccc4ccccc34)cc2)cc1,> 100 µM (inactive),> 100 µM (inactive),> 100 µM (inactive),> 100 µM (inactive),35.6 µM (inactive),> 100 µM (inactive),> 100 µM (inactive),> 100,> 100 µM (inactive),> 100 µM (inactive),> 100 µM (inactive),> 100 µM (inactive),> 100 µM (inactive),> 100 µM (inactive),> 100 µM (inactive),> 100 µM (inactive),> 89.3 µM (inactive),0.893 µM (active),,
CCOC(=O)CC1(Cc2ccc(OCc3ccccc3)cc2)C(=O)OC(c2ccccc2)N1C(=O)c1ccccc1 (stereo not drawn),> 100 µM (inactive),> 100 µM (inactive),45.5 µM (inactive),> 100 µM (inactive),> 100 µM (inactive),> 100 µM (inactive),21.5 µM (inactive),> 100,> 100 µM (inactive),> 100 µM (inactive),> 100 µM (inactive),> 100 µM (inactive),> 100 µM (inactive),> 100 µM (inactive),> 100 µM (inactive),> 100 µM (inactive),> 100 µM (inactive),> 100 µM (inactive),,> 100 µM (inactive)
CC(C)(C)OC(=O)NNC(=O)C1Cc2ccccc2OC1=O (stereo not drawn),> 100 µM (inactive),> 100 µM (inactive),> 100 µM (inactive),> 100 µM (inactive),> 100 µM (inactive),> 100 µM (inactive),> 100 µM (inactive),> 100,> 100 µM (inactive),> 100 µM (inactive),> 100 µM (inactive),> 100 µM (inactive),,> 100 µM (inactive),> 100 µM (inactive),> 100 µM (inactive),> 100 µM (inactive),,,> 100 µM (inactive)
NC(=O)NCCCC(NC(=O)OCCCCn1ccc(=O)[nH]c1=O)C(=O)O (stereo not drawn),> 100 µM (inactive),> 100 µM (inactive),> 100 µM (inactive),> 100 µM (inactive),,> 100 µM (inactive),> 100 µM (inactive),> 100,> 100 µM (inactive),> 100 µM (inactive),> 100 µM (inactive),> 100 µM (inactive),> 100 µM (inactive),> 100 µM (inactive),> 100 µM (inactive),> 100 µM (inactive),> 100 µM (inactive),> 100 µM (inactive),,> 100 µM (inactive)
CC(C)N/C(=N\C#N)NS(=O)(=O)c1cnccc1NC1CCCCCCC1,> 100 µM (inactive),> 100 µM (inactive),> 100 µM (inactive),> 100 µM (inactive),> 100 µM (inactive),> 100 µM (inactive),,> 100,> 100 µM (inactive),> 100 µM (inactive),> 100 µM (inactive),> 100 µM (inactive),,> 100 µM (inactive),> 100 µM (inactive),> 100 µM (inactive),> 100 µM (inactive),,> 100 µM (inactive),
c1cc2nnc1SCCSCCSc1ccc(nn1)SCCSCCS2,> 100 µM (inactive),> 100 µM (inactive),> 100 µM (inactive),> 100 µM (inactive),> 100 µM (inactive),> 100 µM (inactive),> 100 µM (inactive),> 100,> 100 µM (inactive),,> 100 µM (inactive),> 100 µM (inactive),> 100 µM (inactive),> 100 µM (inactive),> 100 µM (inactive),> 100 µM (inactive),> 100 µM (inactive),> 100 µM (inactive),> 100 µM (inactive),25.4 µM (inactive)
Oc1ccccc1/C=N/N1C(=S)N(c2ccccc2)C(=N\c2ccccc2)/C1=N/c1ccccc1,25.1 µM (inactive),4.97 µM (inactive),14 µM (inactive),13.9 µM (inactive),22.4 µM (inactive),11.6 µM (inactive),12.4 µM (inactive),35,2.79 µM (inactive),,34 µM (inactive),16.9 µM (inactive),13.7 µM (inactive),3.63 µM (inactive),26.8 µM (inactive),4.53 µM (inactive),16.9 µM (inactive),30 µM (inactive),5.33 µM (inactive),4.81 µM (inactive)
Nc1c(C(=O)c2ccc(Cl)cc2)[nH]c(NCc2ccccc2)c1C(=S)Nc1ccccc1,1.67 µM (inactive),1.77 µM (inactive),1.58 µM (inactive),2.18 µM (inactive),,7.91 µM (inactive),1.77 µM (inactive),1.79,1.72 µM (inactive),2.49 µM (inactive),3 µM (inactive),5.31 µM (inactive),1.8 µM (inactive),1.94 µM (inactive),1.77 µM (inactive),,3.44 µM (inactive),3.93 µM (inactive),9.98 µM (inactive),4.62 µM (inactive)
O=C1NC(S(=O)(=O)O)=NNC12c1ccccc1-c1ccccc12,> 10 µM (inactive),> 10 µM (inactive),> 10 µM (inactive),> 10 µM (inactive),> 10 µM (inactive),> 10 µM (inactive),> 10 µM (inactive),> 10,,> 10 µM (inactive),,> 10 µM (inactive),> 10 µM (inactive),> 10 µM (inactive),> 10 µM (inactive),> 10 µM (inactive),> 10 µM (inactive),> 10 µM (inactive),,> 10 µM (inactive)
CSCCCN(CCCSC)CCCSC,> 100 µM (inactive),> 100 µM (inactive),> 100 µM (inactive),> 100 µM (inactive),,,> 100 µM (inactive),> 100,> 100 µM (inactive),> 100 µM (inactive),> 100 µM (inactive),> 100 µM (inactive),> 100 µM (inactive),> 100 µM (inactive),> 100 µM (inactive),,> 100 µM (inactive),13.5 µM (inactive),,> 100 µM (inactive)
